Laboratory results reported in patent publication US9164099B2, “Site-specific labeling of affinity tags in fusion proteins” (LIFE TECHNOLOGIES CORPORATION, priority 2002, dated 2015).

Legend:
Format in all cases: binding
[1] = biological target: T1, poly-histidine affinity tag containing fusion protein (Oligomycin sensitivity conferring protein; OSCP) (Homo sapiens, UniProt P48047); experiment: Gel detection of His-tagged OSCP followed by SYPRO Ruby total protein stain (FIG. 2, 3); conditions: staining solution containing nickel ions; compared with SYPRO Ruby total protein stain
T1 construct: poly-histidine; made in house
T1 sequence (P48047 24-213): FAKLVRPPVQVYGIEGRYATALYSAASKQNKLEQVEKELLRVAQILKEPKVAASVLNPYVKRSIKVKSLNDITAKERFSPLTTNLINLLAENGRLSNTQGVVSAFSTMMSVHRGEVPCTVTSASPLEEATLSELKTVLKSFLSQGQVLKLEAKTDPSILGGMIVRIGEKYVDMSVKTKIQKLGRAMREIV
From the text: FIG. 2: FIG. 2A is a graph showing the detection of a poly-histidine affinity tag containing fusion protein (Oligomycin sensitivity conferring protein; OSCP) labeled with Compound 2 in a staining solution containing nickel ions followed by the detection of (shown in FIG. 2B) total protein using the total protein stain SYPRO® Ruby.
FIG. 3: FIG. 3A is a graph showing the detection of a poly-histidine affinity tag containing fusion protein (Oligomycin sensitivity conferring protein; OSCP) labeled with Compound 15 in a staining solution containing nickel ions followed by the detection of (shown in FIG. 3B) total protein using the total protein stain SYPRO® Ruby.
Following separation of the proteins on a SDS-polyacrylamide gel, the gels were fixed for 20 minutes in 100 ml of 50% ethanol/7% acetic acid and then fixed overnight in 100 ml of fresh fixative solution to ensure complete elimination of SDS. Gels were next washed 3 times for 20 minutes each in deionized water. The gels were then incubated in a staining solution containing 10 μM compound 1 or 2 μM compound 2; 100 μM NiCl2; 50 mM PIPES at pH 6.5 for 45-90 minutes in a total volume of 25 ml. Afterwards, the gels were washed 2 to 4 times for 20 minutes each in deionized water. In order to ensure that the optimal signal was documented, gels were imaged after the second and fourth wash. […]

[2] = tested on: poly-histidine affinity tag containing fusion protein (urate oxidase); experiment: Gel detection of His-tagged urate oxidase with and without nickel ions (FIG. 1); conditions: staining solution without nickel ions compared with nickel ions
Procedure: FIG. 1B is a graph showing data from the same experiment performed without nickel ions.
Escherichia coli BL21 DE3 cells were transformed with plasmids containing either the human ATP synthase a subunit, the d subunit (including the leader sequence) or urate oxidase. Both proteins were constructed to have a poly-histidine affinity tag comprising six histidine residues, at the N-terminus and could be induced by isopropyl-beta-D-thiogalactoside (IPTG) addition to the medium. Pre-cultures (10 ml) were grown overnight in bacterial cell culture medium (LB medium) at 37° C. with constant shaking. The next day 100 μl was transferred to 50 ml of fresh LB medium containing 0.1 mg/ml ampicillin and grown until they reached an optical density at 595 nm (OD595) of 0.8. At this point 5 ml of culture was removed and immediately frozen on dry ice. To the rest of the culture 0.8 mM IPTG was added to induce the over-expression of the subunits. Samples (5 ml each) were taken after 10 min, 30 min, 1 h, 1.5 h, 2 h, 2.5 h, and 3 h and again frozen on dry ice. […]
The resulting green-fluorescent signal produced by compound 2 was visualized using the 473 nm excitation line of the SHG laser on the Fuji FLA-3000G Fluorescence Image Analyzer (Fuji Photo, Tokyo, Japan) with the 520 nm long pass filter or the 580 nm band pass filter, respectively. […]

[3] = tested on: oligohistidine-tagged fusion proteins (the a subunit of Escherichia coli ATPase and porin); experiment: Detection of poly-histidine affinity tag fusion proteins on a microarray; conditions: 10 μM compound, 50 mM PIPES pH 6.5
Procedure: Purified oligohistidine-tagged fusion proteins (the a subunit of Escherichia coli ATPase and porin), as well as control proteins (bovine serum albumin and ovalbumin) are arrayed from a source plate (384 well plate) concentration of 0.468 μg/ml-0.240 mg/ml in water, onto HydroGel coated slides (Perkin Elmer), using the BioChip Arrayer™ (Perkin Elmer). The BioChip Arrayer™ utilizes a PiezoTip™ Dispenser consisting of 4 glass capillaries. Proteins are dispensed from the PiezoTip™ by droplets […] in volume to create array spots ˜200 microns in diameter with a 500 micron horizontal and vertical pitch (pitch=center to center spacing of spots). Proteins are arrayed in duplicate in four rows, with 10 dilution points. The resulting concentration range of the array is 166.5 pg/spot-0.325 pg/spot. For detection of oligohistine-tagged proteins, slides are incubated for 45 minutes on a rotator in 50% ethanol/7% acetic acid and then fixed overnight in fresh fixative solution to ensure complete elimination of SDS. Microarrays are next washed 3 times for 20 minutes each in deionized water. The microarrays are then incubated in a staining solution containing 10 μM Compound 2 or Compound 15; 50 mM PIPES at pH 6.5 for 45-90 minutes. Afterwards, the microarrays are washed 2 to 4 times for 20 minutes each in deionized water. […]

4,4-difluoro-4-bora-3a,4a-diaza-s-indacene-3,5-bis((6-(propionyl)amino-2-bis(carboxymethyl)amino)hexanoic acid), hexatriethylammonium salt [Compound 2]
selectivity for the poly-histidine affinity tag [1]: selective
sensitivity for the poly-histidine affinity tag [2]: increased sensitivity
signal on control proteins (bovine serum albumin and ovalbumin) [3]: little or no signal
